Three compounds from US20230372309A1, “ALPHA-2 ADRENERGIC RECEPTOR ANTAGONIST” (Kyoto University, priority 2020, published 2023) can be followed below.

The target of test [1] is T1, a2B adrenergic receptor (Homo sapiens, UniProt P18089).
T1 construct: expressed in transfected cells; host or cells: HEK293
T1 sequence (P18089 1-450): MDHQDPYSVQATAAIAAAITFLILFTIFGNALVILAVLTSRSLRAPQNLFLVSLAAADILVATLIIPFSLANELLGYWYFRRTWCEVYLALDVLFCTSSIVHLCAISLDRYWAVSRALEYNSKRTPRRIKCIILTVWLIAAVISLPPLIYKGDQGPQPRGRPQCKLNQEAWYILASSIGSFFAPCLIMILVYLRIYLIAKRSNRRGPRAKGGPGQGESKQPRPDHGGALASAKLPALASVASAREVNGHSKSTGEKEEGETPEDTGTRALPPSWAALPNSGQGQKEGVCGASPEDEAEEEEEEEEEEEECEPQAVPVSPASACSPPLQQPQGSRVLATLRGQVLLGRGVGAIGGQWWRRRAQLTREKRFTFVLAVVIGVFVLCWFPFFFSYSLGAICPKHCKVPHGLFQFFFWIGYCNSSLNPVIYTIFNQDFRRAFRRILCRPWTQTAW
As to the kind of experiment: TGFα shedding assay in transfected HEK293 cells, noradrenaline stimulation. The conditions noted are these: for pIC50: 5 nM Noradrenaline stimulation, HEK293 cells, read-out: IC50, shedding assay, α2B. Type of test: cell-based. Here is the method:
(§1) The TGFα shedding assay is known as an assay by which a signal transduction pathway of a GPCR can be detected and measured (Patent Document 3). When the signal transduction pathway of a GPCR is activated, fusion proteins of membrane-bound alkaline phosphatase (AP) and TGFα are cleaved by TACE (TNFα converting enzyme), which is a membrane protease, and AP-TGFα is released from the cells. This released AP is measured.
(§2) The TGFα shedding assay was performed according to the method disclosed in WO2015/128894A1.
(§3) Specifically, human embryonic kidney HEK293 cells were transfected with a plasmid vector containing the cDNA of alkaline phosphatase (AP) fused TGFα, a plasmid vector containing the cDNA of a fusion protein (Gaq/i) of an N-terminal peptide fragment of Ga protein Gaq and a C-terminal peptide fragment of Ga protein Gai, and a plasmid vector containing the cDNA of a target GPCR, 24 hours later a compound was added and cultured for 30 minutes, a GPCR agonist (5 nM noradrenaline) was added, one hour later half of the culture supernatant was transferred to a new plate to prepare a supernatant plate, and the remaining plate was used as a cell plate. Ap-nitrophenyl phosphate solution was added to each plate and allowed to stand, and when 0 hours and 2 hours had passed, the absorbance at 405 nm was measured using a plate reader.
(§4) The measured value was converted to AP activity (%) according to the method described in WO2015/128894A1, and the obtained value was used as % Shedding.

For another test, the target named is T2, a2C adrenergic receptor (Homo sapiens, UniProt P18825).
T2 construct: expressed in transfected cells; host or cells: HEK293
T2 sequence (P18825 1-462): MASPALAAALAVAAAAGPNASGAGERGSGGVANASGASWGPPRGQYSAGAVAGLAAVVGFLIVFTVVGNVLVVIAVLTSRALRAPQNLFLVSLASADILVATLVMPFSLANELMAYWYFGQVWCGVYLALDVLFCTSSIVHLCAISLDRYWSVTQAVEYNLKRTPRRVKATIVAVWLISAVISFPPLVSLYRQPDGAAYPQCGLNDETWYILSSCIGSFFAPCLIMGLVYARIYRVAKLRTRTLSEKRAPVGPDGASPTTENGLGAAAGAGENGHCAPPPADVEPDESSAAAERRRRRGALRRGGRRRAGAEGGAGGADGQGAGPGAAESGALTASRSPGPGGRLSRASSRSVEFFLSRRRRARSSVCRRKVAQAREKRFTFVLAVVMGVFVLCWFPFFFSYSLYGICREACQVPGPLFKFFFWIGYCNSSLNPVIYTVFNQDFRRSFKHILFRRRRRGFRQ
Described as above. In kind it is cell-based. The conditions noted are these: 5 nM Noradrenaline stimulation, read-out: IC50, shedding assay, α2C. Here is the method: as §1, §2, §3, §4

The target in test [2] is T3, a2A adrenergic receptor (Homo sapiens, UniProt P08913).
T3 construct: expressed in transfected cells; host or cells: HEK293
T3 sequence (P08913 1-465): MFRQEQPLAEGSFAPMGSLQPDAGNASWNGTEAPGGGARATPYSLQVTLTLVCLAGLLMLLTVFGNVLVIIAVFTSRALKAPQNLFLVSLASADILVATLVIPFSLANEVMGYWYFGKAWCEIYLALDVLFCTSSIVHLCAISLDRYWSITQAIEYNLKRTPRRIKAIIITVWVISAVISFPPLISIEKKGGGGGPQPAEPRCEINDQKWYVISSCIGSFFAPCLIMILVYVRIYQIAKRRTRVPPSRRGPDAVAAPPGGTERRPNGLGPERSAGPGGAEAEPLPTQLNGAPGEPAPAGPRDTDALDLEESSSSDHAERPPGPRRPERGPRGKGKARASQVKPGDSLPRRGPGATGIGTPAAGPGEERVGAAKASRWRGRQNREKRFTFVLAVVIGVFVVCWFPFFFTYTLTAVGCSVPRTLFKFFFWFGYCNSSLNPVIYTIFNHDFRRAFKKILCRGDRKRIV
The description is as above. In kind it is cell-based. Particulars: 5 nM Noradrenaline stimulation, read-out: IC50, shedding assay, α2A. Here is the method: as §1, §2, §3, §4

A further test concerns the target T4, a1B adrenergic receptor (Homo sapiens, UniProt P35368).
T4 sequence (P35368 1-520): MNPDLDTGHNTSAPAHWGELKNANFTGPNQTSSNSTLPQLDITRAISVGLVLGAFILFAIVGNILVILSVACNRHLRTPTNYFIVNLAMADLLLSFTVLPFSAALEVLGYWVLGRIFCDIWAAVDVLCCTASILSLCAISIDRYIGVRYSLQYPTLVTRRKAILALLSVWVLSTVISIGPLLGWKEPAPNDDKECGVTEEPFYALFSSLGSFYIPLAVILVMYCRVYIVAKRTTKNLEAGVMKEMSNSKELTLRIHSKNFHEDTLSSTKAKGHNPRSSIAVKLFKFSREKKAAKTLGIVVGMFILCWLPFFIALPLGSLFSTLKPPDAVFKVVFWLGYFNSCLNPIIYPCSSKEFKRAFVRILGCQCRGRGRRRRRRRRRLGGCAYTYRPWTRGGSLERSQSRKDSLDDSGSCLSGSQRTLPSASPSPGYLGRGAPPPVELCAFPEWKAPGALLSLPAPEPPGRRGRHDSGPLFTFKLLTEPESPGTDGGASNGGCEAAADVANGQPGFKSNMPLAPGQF
As to the kind of experiment: Binding affinity to a1 adrenergic receptors, tritium-labeled prazosin tracer. The conditions noted are these: tritium-labeled prazosin as tracer. Here is the method:
(§5) [Binding Affinity to a1 Adrenergic Receptors]
(§6) The compound 1 was assayed for its inhibitory activity against a1A adrenergic receptor and a1B adrenergic receptor using prazosin with a 7-methoxy group labeled with tritium as a tracer, and binding affinity was examined. Prazosin is an antagonist that specifically binds to a1 adrenergic receptors.

A further test concerns the target T5, a1A adrenergic receptor (Homo sapiens, UniProt P35348).
T5 sequence (P35348 1-466): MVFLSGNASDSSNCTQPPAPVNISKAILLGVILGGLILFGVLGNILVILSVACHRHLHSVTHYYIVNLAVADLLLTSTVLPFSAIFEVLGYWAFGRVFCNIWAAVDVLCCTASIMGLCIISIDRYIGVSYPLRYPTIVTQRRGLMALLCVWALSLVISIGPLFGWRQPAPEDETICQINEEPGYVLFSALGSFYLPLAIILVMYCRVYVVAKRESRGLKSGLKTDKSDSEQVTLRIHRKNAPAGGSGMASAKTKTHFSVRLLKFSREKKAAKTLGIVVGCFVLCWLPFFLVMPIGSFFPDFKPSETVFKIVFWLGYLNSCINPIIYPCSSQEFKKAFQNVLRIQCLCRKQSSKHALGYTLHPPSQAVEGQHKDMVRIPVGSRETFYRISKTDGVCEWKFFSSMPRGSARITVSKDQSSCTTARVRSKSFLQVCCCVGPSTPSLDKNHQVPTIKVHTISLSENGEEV
Described as above. The conditions noted are these: tritium-labeled prazosin as tracer. Here is the method: as §5, §6

Test [3] deals with T1, a2B adrenergic receptor. As to the kind of experiment: Binding affinity to a2 adrenergic receptors, tritium-labeled rauwolscine tracer. Particulars: tritium-labeled rauwolscine as tracer. Here is the method: (§7) [Binding Affinity to a2 Adrenergic Receptors]
(§8) The compound 1 was assayed for its inhibitory activity against a2A adrenergic receptor and a2B adrenergic receptor using rauwolscine with a methyl group labeled with tritium as a tracer, and binding affmity was examined. RauwoLscine is an antagonist that specifically binds to a2 adrenergic receptors.

For test [4], the target named is T3, a2A adrenergic receptor. Described as above. Particulars: tritium-labeled rauwolscine as tracer. Here is the method: as §7, §8

pIC50: −log10 of the molar value. A value given as a limit tells only on which side of the number the result lay.

For `CCN1/C(=C/C(C)=O)Sc2cc(OC)ccc21` [Compound 3, (1Z)-1-(3-ethyl-6-methoxy-2(3H)-benzothiazoylidene)-2-propanone], the negative logarithm of the IC50 (pIC50) on a2B adrenergic receptor [1], at a2C adrenergic receptor and on a2A adrenergic receptor [2] was under 4.52 each time.

For the compound `CCN1/C(=C/C(C)=O)Sc2ccc(F)cc21` [Compound 1, (1Z)-1-(3-ethyl-5-fluoro-2(3H)-benzothiazolylidene)-2-propanone], the negative-log IC50 (pIC50) on a2B adrenergic receptor [1] is 5.92; at a2C adrenergic receptor, under 4.52; on a2A adrenergic receptor [2], under 4.52. The “binding affinity (inhibitory activity) to a2B adrenergic receptor compared with a2A and a2C adrenergic receptor” value at a2B adrenergic receptor [1] (shedding assay, Table 1, a2B versus a2A and a2C) is “higher”. Moreover, the “binding affinity to the a1B adrenergic receptor” value at a1B adrenergic receptor is recorded as “did not exhibit binding affinity”. Further, at a1A adrenergic receptor, the “binding affinity to the a1A adrenergic receptor” value was “did not exhibit binding affinity”. Besides, the “binding affinity to a2B adrenergic receptor” value at a2B adrenergic receptor [3] was “exhibited selective binding affinity”. Also, the “binding affinity to a2B adrenergic receptor compared with a2A adrenergic receptor” value on a2B adrenergic receptor [3] (a2B versus a2A) was “higher”. On a2A adrenergic receptor [4], the “binding affinity to a2A adrenergic receptor” value is “exhibited selective binding affinity”.

On to `CCN1/C(=C/C(C)=O)Sc2ccc(OC)cc21` [Compound 2], for which the pIC50 at a2B adrenergic receptor [1], at a2C adrenergic receptor and on a2A adrenergic receptor [2] was under 4.52 in each case.
